Measurements published in patent publication US9676725B2, “S-crystal form of ivabradine hydrochloride, and preparation method and pharmaceutical composition thereof” (Beijing Lunarsun Pharmaceutical Co., LTD., priority 2014, dated 2017).
Each block holds one compound with its values, some of them ahead of it.

Tests used:
Format in all cases: physicochemical
[1] = Humidity stability test (moisture and XRD); settings: for Moisture: open, humidity 43.1±0.5%, room temperature (20° C.); for Change of crystal form on water absorption: stored in open condition under humidity 43.1±0.5%, water content up to 3%, hydrochloride
Experimental: The S crystal form of ivabradine hydrochloride as prepared in Example 2 was spread on watch glass to form a thin layer and placed in the upper part of a desiccator, and saturated potassium carbonate solution was placed in the lower part of the desiccator, the humidity in the desiccator was detected (humidity: 43.1±0.5%), conditions were controlled at room temperature (20° C.) and constant humidity, and samples were taken at 1 h, 8 h, 16 h, 24 h, 48 h, 96 h for moisture and XRD tests, and the results are shown in the following table.

[2] = High-temperature stability test at 60° C.; settings: for Content / Properties / Relevant substances: Max single impurity / Relevant substances: Total impurities: 60° C.
From the text: Thus, the product could be stored stably in storehouse at room temperature.

[3] = Storage of crystal form at room temperature (crystal form transformation); settings: 10 days storage at room temperature
From the text: Although many crystal forms have been reported in the documents, their stability and preparation methods are not satisfied. […] Delta crystal form contains acetonitrile which can hardly be removed, and it is difficult to distinguish from acetonitrile-containing crystal form. In addition, ivabradine hydrochloride as a hydrochloride is very easy to absorb moisture, while the change of water content may result in changes of many crystal forms, for example, the change between γd and γ, the change between βd and β.

Moisture ([1]; 1 h): 0.46%
Moisture ([1]; 8 h): 0.55%
Moisture ([1]; 16 h): 0.60%
Moisture ([1]; 24 h): 0.82%
Moisture ([1]; 48 h): 1.4%
Moisture ([1]; 96 h): 3.0%
Change of crystal form on water absorption ([1]; listed as S crystal form): does not change
Change of crystal form on water absorption ([1]; listed as the product): did not change
Content ([2]; the 0th day): 99.50%
Properties ([2]; the 0th day): White
Relevant substances: Max single impurity ([2]; the 0th day): 0.04%
Relevant substances: Total impurities ([2]; the 0th day): 0.19%
Content ([2]; the 5th day): 99.40%
Properties ([2]; the 5th day): White
Relevant substances: Max single impurity ([2]; the 5th day): 0.05%
Relevant substances: Total impurities ([2]; the 5th day): 0.20%
Content ([2]; the 10th day): 99.50%
Properties ([2]; the 10th day): White
Relevant substances: Max single impurity ([2]; the 10th day): 0.05%
Relevant substances: Total impurities ([2]; the 10th day): 0.20%
Change of indicators, e.g. purity, versus the 0th day ([2]; stored at 60° C. for 10 days): did not change significantly
Stability of crystal form ([2]; stored at 60° C. for 10 days): very stable
SMILES: COc1cc2c(cc1OC)CC(=O)N(CCCN(C)C[C@H]1Cc3cc(OC)c(OC)cc31)CC2.Cl [3-{3-[{[(7S)-3,4-dimethoxybicyclo[4.2.0]octa-1,3,5-trien-7-yl]-methyl}(methyl)-amino]propyl}-7,8-dimethoxy-1,3,4,5-tetrahydro-2H-3-benzazepin-2-one hydrochloride]

SMILES: COc1cc2c(cc1OC)CC(=O)N(CCCN(C)C[C@H]1Cc3cc(OC)c(OC)cc31)CC2.Cl [δd crystal form, 3-{3-[{[(7S)-3,4-dimethoxybicyclo[4.2.0]octa-1,3,5-trien-7-yl]-methyl}(methyl)-amino]propyl}-7,8-dimethoxy-1,3,4,5-tetrahydro-2H-3-benzazepin-2-one hydrochloride]
Crystal form transformation on storage [3]: most of the δd crystal form will transform into α crystal form
